Measured values reported in BindingDB's records for doi:10.7270/Q2ZC817P (The Scripps Research Institute Molecular Screening Center, 2007).
Where a name gives a salt, the structure may show the parent alone.

molecular target: Sphingosine 1-phosphate receptor 1 (Homo sapiens, UniProt P21453); experiment: potentiators of S1P1 agonist response, dose response, cell-based, potentiator mode, 60K MLSMR set (AID 466); settings: not given
Sequence (P21453 whole entry): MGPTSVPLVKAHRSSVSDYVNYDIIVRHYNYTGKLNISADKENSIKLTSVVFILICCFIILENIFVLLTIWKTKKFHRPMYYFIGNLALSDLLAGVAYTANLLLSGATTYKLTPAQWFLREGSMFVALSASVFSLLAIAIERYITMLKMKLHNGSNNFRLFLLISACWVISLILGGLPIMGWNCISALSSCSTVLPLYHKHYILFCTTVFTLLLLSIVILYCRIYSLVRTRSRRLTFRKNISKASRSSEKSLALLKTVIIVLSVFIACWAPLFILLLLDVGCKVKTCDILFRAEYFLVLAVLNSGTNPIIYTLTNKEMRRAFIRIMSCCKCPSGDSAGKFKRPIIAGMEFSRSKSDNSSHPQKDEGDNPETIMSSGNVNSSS

Structure (SMILES) | EC50 [µM]
CCOc1ccc(C(=O)Nc2ccc(Cl)cn2)cc1Cl [3-chloranyl-N-(5-chloranylpyridin-2-yl)-4-ethoxy-benzamide] | 4.76
O=C(CSc1nnc(-c2cc3ccccc3cc2O)n1Cc1ccco1)c1ccc(F)cc1 [(3Z)-3-[3-[2-(4-fluorophenyl)-2-oxidanylidene-ethyl]sulfanyl-4-(furan-2-ylmethyl)-1H-1,2,4-triazol-5-ylidene]naphthalen-2-one] | 23.1
Fc1ccccc1COc1ccc(C=Nn2cnnc2)cc1 [1-[4-[(2-fluorophenyl)methoxy]phenyl]-N-(1,2,4-triazol-4-yl)methanimine] | 4.74
CCCC(=O)Nc1ccc2oc(-c3ccc(OC)c(Br)c3)nc2c1 [MLS000042482] | 4.14
CCCCOc1ncnc2c1[nH]c1ccccc12 [MLS000041483] | 4.52
COc1ccccc1N=C(N)Nc1nc(CSc2ccc(C)cc2)cc(=O)[nH]1 [1-(2-methoxyphenyl)-2-[6-[[(4-methylphenyl)thio]methyl]-4-oxo-1H-pyrimidin-2-yl]guanidine] | 9.15
O=C(Nc1ccc(O)cc1)c1cc2n(n1)C(C(F)(F)F)CC(c1ccco1)N2 (configuration not stated) [5-(2-furanyl)-N-(4-hydroxyphenyl)-7-(trifluoromethyl)-1,5,6,7-tetrahydropyrazolo[1,5-a]pyrimidine-2-carboxamide] | 3.29
O=C(c1ccc(Cl)s1)N1CCN(c2nc3ccccc3s2)CC1 [MLS000100900] | > 30
CCN=c1scc(-c2ccc3c(c2)NC(=O)CO3)n1N=C1CCCC1 [MLS000054638] | 7.16
CCCc1ccc(OCc2nc(-c3ccc(NC(=O)c4ccco4)cc3)no2)cc1 [MLS000097352] | 4.08
O=C(CSc1nc2ccccc2o1)Nc1ccc(N2CCOCC2)c(Cl)c1 [2-(1,3-benzoxazol-2-ylsulfanyl)-N-(3-chloranyl-4-morpholin-4-yl-phenyl)ethanamide] | 1.25
Clc1ccc(OCCN2CCN(c3ncnc4sccc34)CC2)cc1 [4-[4-[2-(4-chloranylphenoxy)ethyl]piperazin-1-yl]thieno[2,3-d]pyrimidine] | 0.108
COCC(=O)Nc1cccc(C(F)(F)F)c1 [2-methoxy-N-[3-(trifluoromethyl)phenyl]acetamide] | > 95
Nc1nonc1C(=O)NCCNCc1cc(Br)ccc1OCc1ccc(F)cc1 [4-amino-N-[2-[[5-bromo-2-(4-fluorobenzyl)oxy-benzyl]amino]ethyl]furazan-3-carboxamide;hydrochloride] | 7.81
CCC(C)c1ccc2oc(-c3ccc(NC(=O)Cn4cnc5c(=O)n(C)c(=O)n(C)c54)cc3)nc2c1 (configuration not stated) [2-(2,6-diketo-1,3-dimethyl-purin-9-yl)-N-[4-(5-sec-butyl-1,3-benzoxazol-2-yl)phenyl]acetamide] | 1.59
O=C(Nc1ccc(N2CCCC2)c(Cl)c1)c1ccc(Br)o1 [5-bromanyl-N-(3-chloranyl-4-pyrrolidin-1-yl-phenyl)furan-2-carboxamide] | 3.76
COc1ccc(CN=O)cc1COc1ccc(NC(C)=O)cc1 [MLS000111933] | > 95
O=C(Nc1nccs1)c1ccc(S(=O)(=O)NCC2CCCCC2)cc1 [4-(Cyclohexylmethyl-sulfamoyl)-N-thiazol-2-yl-benzamide] | 7.5

Continued, values first:

EC50 [µM] | Structure (SMILES)
4.77 | O=C(CCc1nc(-c2ccccc2F)no1)Nc1ccc(Oc2ccccc2)cc1 [3-[3-(2-fluorophenyl)-1,2,4-oxadiazol-5-yl]-N-(4-phenoxyphenyl)propanamide]
4.19 | Cc1cc(C(=O)CSc2nnc(-c3cccs3)o2)c(C)n1-c1ccccc1 [1-(2,5-dimethyl-1-phenyl-3-pyrrolyl)-2-[(5-thiophen-2-yl-1,3,4-oxadiazol-2-yl)thio]ethanone]
2.06 | Cn1c(SCC(=O)Nc2ccc(N3CCOCC3)c(Cl)c2)nnc1-c1ccccc1 [MLS000089171]
5.31 | Cc1nnc2ccc(Oc3ccc(-c4ccccc4)cc3)nn12 [3-methyl-6-(4-phenylphenoxy)-[1,2,4]triazolo[4,3-b]pyridazine]
0.223 | CC(=O)Nc1ccccc1OCC(=O)c1cc(C)n(Cc2cccs2)c1C [MLS000056239]
5.53 | Cc1cc(NC(=O)c2oc3ccccc3c2C)ccc1-n1cnnn1 [3-Methyl-benzofuran-2-carboxylic acid (3-methyl-4-tetrazol-1-yl-phenyl)-amide]
5.06 | COc1ccc(CNC(=O)c2cc3c(C)nc4ccccc4c3o2)c(OC)c1 [MLS000118441]
> 30 | Cc1cccc(NC(=O)Nc2ccc(C#N)cc2)n1 [1-(4-cyanophenyl)-3-(6-methyl-2-pyridinyl)urea]
0.837 | O=C(CSc1nnc(-c2c[nH]c3ccccc23)o1)N(Cc1ccccc1)c1ccc(F)cc1
2.28 | Cc1csc(NC(=O)C(Cc2ccccc2)n2cccc2)n1 (configuration not stated) [MLS000119019]
10.2 | CCOC(=O)c1cccc2c1-c1ccccc1C2N=O (configuration not stated) [9-hydroximinofluorene-4-carboxylic acid ethyl ester]

same assay, conditions: inactive by the depositor's call

Structure (SMILES) | EC50 [µM]
O=C(CSc1ncnc2c1oc1ccccc12)N1CCCc2ccccc21 [2-(4-benzofuro[3,2-d]pyrimidinylthio)-1-(3,4-dihydro-2H-quinolin-1-yl)ethanone] | 10.8
CCOC(=O)c1oc2ccc(S(=O)(=O)n3nc(-c4ccc(OC)cc4)cc3N)cc2c1C [5-[5-amino-3-(4-methoxyphenyl)pyrazol-1-yl]sulfonyl-3-methyl-coumarilic acid ethyl ester] | 44.3
COc1ccc2c(c1)CCc1c(C(=O)NC3CCCCC3)noc1-2 [MLS000087437] | 88.9
Cc1ccc(Cl)cc1N1CCN(C(=O)COc2ccc(S(=O)(=O)NC(C)C)cc2)CC1 [4-[2-[4-(5-chloranyl-2-methyl-phenyl)piperazin-1-yl]-2-oxidanylidene-ethoxy]-N-propan-2-yl-benzenesulfonamide] | 13.1
Cc1ccc(S(=O)(=O)n2nc(C)c(Br)c2C)c(C)c1C [4-bromanyl-3,5-dimethyl-1-(2,3,4-trimethylphenyl)sulfonyl-pyrazole] | 83.1
C=CCn1c(C)cc(C(=O)CSc2nc3ccccc3o2)c1C [1-(1-allyl-2,5-dimethyl-pyrrol-3-yl)-2-(1,3-benzoxazol-2-ylthio)ethanone] | 10.3
Cc1ccc(S(=O)(=O)Nc2cccc3ncccc23)s1 [5-methyl-N-quinolin-5-ylthiophene-2-sulfonamide] | 27.6
Cn1nc(CC(=O)Nc2ccc(N3CCN(C(=O)OC(C)(C)C)CC3)cc2)c2ccccc2c1=O [4-[4-[[2-(3-methyl-4-oxo-1-phthalazinyl)-1-oxoethyl]amino]phenyl]-1-piperazinecarboxylic acid tert-butyl ester] | 14.4
CCc1ccc(N(CC)c2ncnc3nc[nH]c23)cc1 | 14.7
CCNc1nc2c(c(=O)n(C)c(=O)n2C)n1Cc1ccc(Cl)cc1 [7-(4-chlorobenzyl)-8-(ethylamino)-1,3-dimethyl-xanthine] | 14.4

Further lines, results first:

EC50 [µM] | Structure (SMILES)
15.6 | Cc1nn(Cc2ccccc2)c(C)c1C(=O)OCC(=O)c1cc(C)n(C2CC2)c1C [1-benzyl-3,5-dimethyl-pyrazole-4-carboxylic acid [2-(1-cyclopropyl-2,5-dimethyl-pyrrol-3-yl)-2-keto-ethyl] ester]
23.6 | COc1ccc2ncn(-c3ccccc3)c2c1 [6-methoxy-1-phenyl-1H-1,3-benzodiazole]
17.6 | Cc1nc2sc(-c3ccccc3)cc2c(=O)n1-n1cccc1 [2-methyl-6-phenyl-3-(1-pyrrolyl)-4-thieno[2,3-d]pyrimidinone]
